Assay results published in ChEMBL document CHEMBL1149553, “Bicyclo[2.2.2]octanes: close structural mimics of the nuclear receptor-binding motif of steroid receptor coactivators” (Bioorg Med Chem Lett, 2007).
pKi: −log10 of the molar value.

Molecular target: T1, Estrogen receptor (Homo sapiens, UniProt P03372)
T1 sequence (P03372 whole entry): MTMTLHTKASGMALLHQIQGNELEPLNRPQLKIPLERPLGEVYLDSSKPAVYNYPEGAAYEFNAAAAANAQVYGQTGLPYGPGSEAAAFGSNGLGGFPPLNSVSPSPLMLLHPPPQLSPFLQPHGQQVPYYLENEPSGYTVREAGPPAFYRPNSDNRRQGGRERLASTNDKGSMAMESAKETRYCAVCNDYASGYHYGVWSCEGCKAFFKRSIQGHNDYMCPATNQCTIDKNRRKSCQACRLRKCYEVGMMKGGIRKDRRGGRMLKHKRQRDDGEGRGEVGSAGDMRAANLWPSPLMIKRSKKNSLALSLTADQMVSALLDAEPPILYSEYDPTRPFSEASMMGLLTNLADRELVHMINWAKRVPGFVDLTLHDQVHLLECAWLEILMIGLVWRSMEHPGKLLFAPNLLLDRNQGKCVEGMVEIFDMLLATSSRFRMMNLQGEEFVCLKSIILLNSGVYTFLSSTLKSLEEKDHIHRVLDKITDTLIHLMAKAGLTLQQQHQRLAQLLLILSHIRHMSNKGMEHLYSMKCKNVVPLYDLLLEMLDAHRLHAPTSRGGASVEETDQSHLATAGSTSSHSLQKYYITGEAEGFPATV
Assay: Displacement of iodoacetamide-fluorescein-labeled SRC3 from ERalpha by TR-FRET assay

Row | Compound | pKi
1 | COC(=O)C(N)CC1(C)CC2CCC1CC2C(C)(C)CCNC(=O)CCC(C)C (stereo unspecified) | 4.49
2 | CC[C@H](C)[C@H](NC(=O)[C@H](CCCCN)NC(=O)[C@H](Cc1c[nH]cn1)NC(=O)[C@H](CCCNC(=N)N)NC(=O)[C@H](CCC(=O)O)NC(=O)[C@@H](NC(=O)[C@@H](N)CC(C)C)[C@@H](C)O)C(=O)N[C@@H](CC(C)C)C(=O)N[C@@H](Cc1c[nH]cn1)C(=O)N[C@@H](CCCNC(=N)N)C(=O)N[C@@H](CC(C)C)C(=O)N[C@@H](CC(C)C)C(=O)N[C@@H](CCC(N)=O)C(=O)N[C@@H](CCC(=O)O)C(=O)NCC(=O)N[C@@H](CO)C(=O)N1CCC[C@H]1C(=O)N[C@@H](CO)C(=O)N[C@@H](CC(=O)O)C(=O)O | 6.72
3 | COC(=O)C(=CC1(C)CC2C=CC1CC2C(C)(C)CCNC(=O)CCC(C)C)C(=O)OC (stereo unspecified) | 5.10
4 | COC(=O)C(CC1(C)CC2CCC1CC2C(C)(C)CCNC(=O)CCC(C)C)C(=O)O (stereo unspecified) | 4.92

Second part, the compound after the results:

Row | pKi | Compound
5 | 4.42 | COC(=O)C(CC1(C)CC2CCC1CC2C(C)(C)CCNC(=O)CCC(C)C)NC(=O)OCc1ccccc1 (stereo unspecified)
6 | 5.15 | COC(=O)C(CC1(C)CC2CCC1CC2C(C)(C)CCNC(=O)CCC(C)C)C(=O)OC (stereo unspecified)
